Assay results: US20060178424A1, “Preventing atrial fibrillation (af) with the use of stain drugs” (priority 2003, published 2006)
Entries after “also recorded” stand apart in the source; their conditions may differ.

Columns and labels:
[1] = tested on: atrial tachycardia-induced remodeling; details: dog, cited from earlier work; for Prevention of effects of 1-week atrial tachycardia: literature refs 7-9
[2] = General properties (body weight, hemodynamic variables) at open-chest study; format: in vivo, dog; details: mean±SEM; for Body weight: ATP with oral treatment
Text: (§1) Unipolar leads were inserted through jugular veins into the right ventricular (RV) apex and right atrial (RA) appendage under fluoroscopic guidance and connected to pacemakers (Medtronic) in subcutaneous pockets in the neck. A bipolar electrode was also inserted into the RA for atrial stimulation and recording during serial electrophysiological study (EPS). AV block was created by radiofrequency catheter ablation to control ventricular response during atrial tachypacing (ATP) and the RV pacemaker was programmed to pace at 80 bpm.
(§2) Body temperature was maintained at 37° C., and a femoral artery and both femoral veins were cannulated for pressure monitoring and drug administration. A median sternotomy was performed, and bipolar electrodes were hooked to the RA and left atrial (LA) appendage for recording and stimulation. A programmable stimulator (Digital Cardiovascular Instruments) was used to deliver twice-threshold currents. […] AF duration was assessed as described above and AF vulnerability was determined as the percentage of atrial sites at which AF could be induced by single extrastimuli.

[3] = tested on: atrial tachypaced dogs (atrial tachycardia-induced remodeling); experiment: Final open-chest electrophysiological study after atrial tachypacing; format: in vivo, dog
Text: as §1
(§3) After 24 hours for recovery, a baseline closed-chest EPS was performed under anesthesia with ketamine, diazepam, and isoflurane, and then ATP (400 bpm) was initiated. Closed-chest EPS was repeated at 2,4 and 7 days of ATP and a final open-chest EPS was performed on day 8 under anesthesia with morphine and α-chloralose.
as §2

[4] = tested on: atrial tachypaced dogs (atrial tachycardia-induced remodeling); experiment: Serial closed-chest electrophysiological study during 7-day atrial tachypacing (400 bpm); format: in vivo, dog; details: 7-day ATP, in words
Text: as §1, §3

Row | SMILES | Prevention of effects of 1-week atrial tachycardia [1] | Diastolic BP [2] [mm Hg] | HR (heart rate) [2] [bpm] | LAP (left atrial pressure) [2] [mm Hg] | LVEDP (left ventricular end-diastolic pressure) [2] [mm Hg] | LVSP (left ventricular systolic pressure) [2] [mm Hg] | Systolic BP [2] [mm Hg] | Body weight [2] [kg] | ERP values as a function of cycle length versus ATP-only dogs ([3]; RA appendage, final open-chest study, in words) | AF requiring cardioversion for termination, share of dogs ([3]; following ATP, ATP-only 57%) [%] | Effect on tachypacing-induced ERP shortening and AF promotion (remodeling) ([3]; one week of atrial tachypacing, in words) | Attenuation of ERP changes caused by 48-hour atrial tachycardia ([1]; Carnes et al) | Atrial tachycardia-induced AF promotion (AF duration progression) versus ATP-only [4]
1 | CCCCc1oc2ccccc2c1C(=O)c1cc(I)c(OCCN(CC)CC)c(I)c1 [amiodarone] | prevent the effects of 1-week atrial tachycardia in the dog | – | – | – | – | – | – | – | – | – | – | – | –
2 | COCC(=O)O[C@]1(CCN(C)CCCc2nc3ccccc3[nH]2)CCc2cc(F)ccc2[C@@H]1C(C)C [mibefradil] | prevent the effects of 1-week atrial tachycardia in the dog | – | – | – | – | – | – | – | – | – | – | – | –
3 | O=C1O[C@H]([C@@H](O)CO)C(O)=C1O [vitamin C] | – | 41 ± 6 | 145 ± 9 | 5 ± 1 | 6 ± 1 | 107 ± 8 | 107 ± 8 | 32 ± 2 | No significant differences | 33 | unaffected; also recorded: not altered; also recorded: not shared; also recorded: not observed | effectiveness | not significantly different from ATP-only dogs
4 | CCC(C)(C)C(=O)O[C@H]1C[C@@H](C)C=C2C=C[C@H](C)[C@H](CC[C@@H]3C[C@@H](O)CC(=O)O3)[C@H]21 [simvastatin] | – | 60 ± 7 | 169 ± 6 | 8 ± 1 | 9 ± 1 | 127 ± 5 | 131 ± 4 | 29 ± 2 | – | – | – | – | –
